# Data: patent US20040110954A1, “Methods of synthesizing phenol-contining compounds” (priority 2003, published 2004)
# Where two headings read alike, the source gives them in different places.
# Tests used:
# [1] = Glucuronidation in rat hepatic microsomes with UDPGA; conditions: rat hepatic microsomes ca. 0.5 mg/mL protein, 0.5 uM compound, UDPGA 4 mM, pH 7.4, 37° C.
# Protocol: (§1) The standard procedure for these experiments is as follows: incubations were performed in a final volume of 1.0 mL in a heated block at approximately 37° C. Each incubation contained approximately 0.5 mg/mL microsomal protein and 0.5 uM of the compound. The incubations were conducted with 50 mM potassium phosphate buffer (pH 7.4) and, following a 5 min preincubation at 37° C., were initiated by the addition of cofactor (UDPGA, 4 mM). Aliquots were removed every three minutes and were quenched with two volumes of ACN/EtOH/Acetic acid (80:20:1) containing an appropriate internal standard. Samples were store frozen (ca.−70° C.) until analysis for the quantitation of the parent compound by LC/MS methods. The rate of disappearance of each compound was determined from relative concentration versus time profiles fitted to appropriate exponential decay equations. CLint (mL/min/g liver) was calculated using standard scaling factors.
# [2] = Glucuronidation in human hepatic microsomes with UDPGA; conditions: human hepatic microsomes ca. 0.5 mg/mL protein, 0.5 uM compound, UDPGA 4 mM, pH 7.4, 37° C.
# Protocol: as §1
# [3] = In vivo half-life and clearance in the rat; conditions: male Sprague-Dawley rats; crossover: 60 min iv infusion, then oral gavage; plasma, noncompartmental analysis
# Protocol: Method for Determining the in vivo Half-life (T½) of Compounds in Table 3. The study was conducted using a crossover design on two separate study days. Three male Sprague-Dawley rats received surgically implanted catheters in the vena cava (via the femoral vein), and in the femoral artery at least three days prior to the study. […] On study day two, the animals (fasted) received the compound by oral gavage (16.0 mL/kg). […] Blood samples were collected prior to dosing and at various times following administration of compounds. Plasma concentrations of the compounds were quantified by an HPLC/MS/MS method (LLQ=10 ng/mL). Noncompartmental analysis was used for pharmacokinetic analysis of plasma concentration versus time data.
# [4] = microsomes, pH 7.4
# Protocol: as §1
# [5] = microsomes, pH 7.4; remark: listed apart in the source
# Protocol: as §1
Compound,Clint (mL/min/g liver) rat ([1]; Table 1 diphenylureas),CLint (mL/min/g liver) human ([2]; Table 1 diphenylureas),also measured
"NC(=O)c1c(Cl)ccc(NC(=O)Nc2ccccc2Br)c1O [Table 1 Entry 17, 3-[3-(2-Bromo-phenyl)-ureido]-6-chloro-2-hydroxy-benzamide]",5.2 mL/min/g liver,15.4 mL/min/g liver,–
"CN(C)S(=O)(=O)c1c(Cl)ccc(NC(=O)Nc2cccc(Cl)c2Cl)c1O [Table 1 Entry 3, N-[4-Chloro-3-(N″,N″-dimethylaminosulfonyl)-2-hydroxyphenyl]-N′-(2,3-dichlorophenyl) urea]",<0.6 mL/min/g liver,<0.6 mL/min/g liver,Clint (mL/min/g liver) rat ([1]; Table 2 squaramide series): 12 mL/min/g liver; CLint (mL/min/g liver) human ([2]; Table 2 squaramide series): 16 mL/min/g liver; Cl [3]: 65 mL/min/kg; T½ [3]: 11.4 min
"CCC(C)c1c(C#N)ccc(NC(=O)Nc2ccccc2Br)c1O (stereo not shown) [Table 1 Entry 11, 1-(2-Bromo-phenyl)-3-[4-cyano-2-hydroxy-3-(1-methyl-propyl)-phenyl]-urea]",–,2.8 mL/min/g liver,–
"C[S+]([O-])c1c(Cl)ccc(NC(=O)Nc2cccc(Cl)c2Cl)c1O (stereo not shown) [Table 1 Entry 15, 1-(4-Chloro-2-hydroxy-3-methanesulfinyl-phenyl)-3-(2,3-dichloro-phenyl)-urea]",2.6 mL/min/g liver,4.1 mL/min/g liver,–
"CS(=O)(=O)c1c(Cl)ccc(NC(=O)Nc2cccc(Cl)c2Cl)c1O [Table 1 Entry 8, 1-(4Chloro-2-hydroxy-3-methanesulfonyl-phenyl)-3-(2,3-dichloro-phenyl)-urea]",<0.6 mL/min/g liver,<0.6 mL/min/g liver,–
"O=C(Nc1ccc(Cl)c(C(=O)N2CCOCC2)c1O)Nc1cccc(Cl)c1Cl [Table 1 Entry 19, 1-[4-Chloro-2-hydroxy-3-(1-morpholin-4-yl-methanoyl)-phenyl]-3-(2,3-dichloro-phenyl)-urea]",24 mL/min/g liver,21 mL/min/g liver,–
"CNS(=O)(=O)c1c(Cl)ccc(NC(=O)Nc2cccc(Cl)c2Cl)c1O [Table 1 Entry 5, N-[4-chloro-2-hydroxy-3-(N″-methylaminosulfonyl)phenyl]-N′-(2,3-dichlorophenyl) urea]",<0.6 mL/min/g liver,<0.6 mL/min/g liver,Clint (mL/min/g liver) rat ([1]; Table 2 squaramide series): 6.7 mL/min/g liver; CLint (mL/min/g liver) human ([2]; Table 2 squaramide series): >50 mL/min/g liver; Cl [3]: 26 mL/min/kg; T½ [3]: 5.4 min
"N#Cc1ccc(NC(=O)Nc2ccccc2Br)c(O)c1Br [Table 1 Entry 14, 1-(3-Bromo-4-cyano-2-hydroxy-phenyl)-3-(2-bromo-phenyl)-urea]",–,–,Clint (mL/min/g liver) rat [4]: 27 mL/min/g liver; CLint (mL/min/g liver) human [5]: 3.7 mL/min/g liver
"CC(C)Cc1c(C#N)ccc(NC(=O)Nc2ccccc2Br)c1O [Table 1 Entry 13, 1-(2-Bromo-phenyl)-3-(4-cyano-2-hydroxy-3-isobutyl-phenyl)-urea]",–,7.6 mL/min/g liver,–
"CNS(=O)(=O)c1c(Cl)ccc(NC(=O)Nc2ccccc2Br)c1O [Table 1 Entry 6, N′-(2-bromophenyl)-N′-[4-chloro-2-hydroxy-3-(N″-methylaminosulfonyl)phenyl] urea]",–,–,Clint (mL/min/g liver) rat [4]: <0.6 mL/min/g liver; CLint (mL/min/g liver) human [5]: <0.6 mL/min/g liver
"N-(4-chloro-2-hydroxy-3-aminosulfonylphenyl)-N′-(2,3-dichlorophenyl) urea sodium salt [Example 1]",<0.6 mL/min/g liver,<0.6 mL/min/g liver,Clint (mL/min/g liver) rat ([1]; Table 2 squaramide series): <0.6 mL/min/g liver; CLint (mL/min/g liver) human ([2]; Table 2 squaramide series): <0.6 mL/min/g liver; Cl [3]: 4.6 mL/min/kg; T½ [3]: 636 min
"CS(=O)(=O)c1c(C#N)ccc(NC(=O)Nc2ccccc2Br)c1O [Table 1 Entry 9, 1-(2-Bromo-phenyl)-3-(4-cyano-2-hydroxy-3-methanesulfonyl-phenyl)-urea]",<0.6 mL/min/g liver,<0.6 mL/min/g liver,–

# Further lines, with some results ahead:
Clint (mL/min/g liver) rat ([1]; Table 1 diphenylureas),CLint (mL/min/g liver) human ([2]; Table 1 diphenylureas),Compound,also measured
1.3 mL/min/g liver,11 mL/min/g liver,"NS(=O)(=O)Cc1c(Cl)ccc(NC(=O)Nc2cccc(Cl)c2Cl)c1O [Table 1 Entry 16, {6-Chloro-3-[3-(2,3-dichloro-phenyl)-ureido]-2-hydroxy-phenyl}-methanesulfonamide]",–
9.3 mL/min/g liver,11 mL/min/g liver,"O=C(Nc1ccc(Cl)c(C(=O)Nc2ccccc2)c1O)Nc1cccc(Cl)c1Cl [Table 1 Entry 18, 6-Chloro-3-[3-(2,3-dichloro-phenyl)-ureido]-2-hydroxy-N-phenyl-benzamide]",melting point: 244 to 245 °C
–,11.3 mL/min/g liver,"CCCc1c(C#N)ccc(NC(=O)Nc2ccccc2Br)c1O [Table 1 Entry 10, 1-(2-Bromo-phenyl)-3-(4-cyano-2-hydroxy-3-propyl-phenyl)-urea]",melting point: 174 to 175 °C
<0.6 mL/min/g liver,<0.6 mL/min/g liver,"CN(C)S(=O)(=O)c1c(Cl)ccc(NC(=O)Nc2ccccc2Br)c1O [Table 1 Entry 4, N-(2-Bromophenyl)-N′[4-chloro-3-(N″,N″-dimethylaminosulfonyl)-2-hydroxyphenyl] urea]",Clint (mL/min/g liver) rat ([1]; Table 2 squaramide series): 5.1 mL/min/g liver; CLint (mL/min/g liver) human ([2]; Table 2 squaramide series): 28 mL/min/g liver; Cl [3]: 72 mL/min/kg
<0.6 mL/min/g liver,<0.6 mL/min/g liver,"COCCNS(=O)(=O)c1c(Cl)ccc(NC(=O)Nc2cccc(Cl)c2Cl)c1O [Table 1 Entry 7, N-[4-chloro-2-hydroxy-3-[N″-(2-methoxyethyl)sufonyl]phenyl]-N′-(2,3-dichlorophenyl) urea]",–
–,2.4 mL/min/g liver,"CCCC(C)c1c(C#N)ccc(NC(=O)Nc2ccccc2Br)c1O (stereo not shown) [Table 1 Entry 12, 1-(2-Bromo-phenyl)-3-[4-cyano-2-hydroxy-3-(1-methyl-butyl)-phenyl]-urea]",–
